Data: patent US6713459B1, “Methods for the prophylactic and therapeutic treatment of cardiac tissue damage” (East Tennessee State University, priority 2000, dated 2004)
pKd: −log10 of the molar value. Like-named read-outs stand apart in the source and are kept apart here.

How the values were obtained:
[1] = test system: cardiac myocyte apoptosis; assay: TUNEL assay of cardiac myocyte apoptosis after I/R; format: in vivo, Sprague-Dawley rats; conditions: 40 mg/kg 1 hr before 30 min ischemia, 3 hr reperfusion; untreated I/R hearts 17.17±1.41%
Protocol: (§1) Ischemia/reperfusion protocols were performed using Sprague-Dawley rats (Harlan Sprague-Dawley, Indianapolis, Indiana). Left anterior descending (LAD) coronary artery occlusion was performed by tying off the LAD artery near its origin using a suture. Glucan phosphate was employed in the ischemia reperfusion (I/R) studies.
The effects of (1→3)-β-D-glucan on apoptosis were investigated using rats treated with (1-3)-β-D-glucan (40 mg/kg) 1 hr. before the. hearts were subjected to 30 min. of ischemia followed by 3 hr. reperfusion. Upon completion of the protocol, the hearts were removed, rinsed free of blood, and perfused with freshly prepared phosphate-buffered 4% formaldehyde. Heart segments distal to the ligation were horizontally sliced into 2 mm sections and fixed with phosphate-buffered 4% formaldehyde at 4° C. overnight. The terminal deoxynucleotidyl transferase-mediated dUTP nick end-labeling (TUNEL) technique (Gavrieli, Y., et al., J. Cell Biol. (1992) 119: 493-501) was used to quantitate the level of apoptosis, using an In Situ Cell Death Detection Kit (Roche Diagnostics) and manufacturer's instructions. Briefly, three slides from each block were evaluated to determine the percentage of TUNEL positive cells. For each slide, four fields were randomly examined using a defined rectangular field area with magnification of 200×. A total of 100 cells were counted in each field. […]

[2] = test system: rat hearts subjected to ischemia/reperfusion; assay: myocardial infarct size after LAD occlusion and reperfusion, TTC staining; format: in vivo, Sprague-Dawley rats; conditions: 4 hr reperfusion; for infarct size/area at risk: mean±SEM
Protocol: as §1
Sprague-Dawley rats (250-300 g) were treated, with (1→3)-β-D-glucans at a concentration of 40 mg/kg one hour before the hearts were subjected to 45 minutes of occlusion of the left anterior descending (LAD) coronary artery, followed by reperfusion for 4 hours. At the completion of the experimental protocol, the heart was removed, rinsed free of blood, stained with 1% Evans Blue, and sectioned into five slices, followed by incubation in triphenyltetrazolium chloride (TTC) solution. Viable myocardium (risk area) was stained with TTC while the necrotic myocardium was pale white. The area of infarction on both sides of each slice was analyzed by an image analyzer (Alpha Imager 2000), corrected for each slice weight and summed for each left ventricle. The infarct areas were expressed as a percentage of risk area as well as a percentage of left ventricle and the risk areas were expressed as a percentage of left ventricle.
Glucan phosphate (40 mg/kg) was administered to rats via intravenous route 5 min. after the rat hearts were subjected to occlusion of the left afterior descending (LAD) coronary artery, followed by 4 hr. reperfusion. Subsequently, the hearts were harvested and the infarct size/area at risk was determined using TTC staining and image analysis as described previously. FIG. 19 illustrates results, with infarct size expressed as percentage of risk area and risk area expressed as percentage of the left ventricle.

IκBα = assay: Western blot of cytoplasmic IκBα in rat myocardium after I/R; format: in vivo, Sprague-Dawley rats; conditions: 40 mg/Kg one hr before 15 min ischemia and 30 min reperfusion
Protocol: FIG. 15 is a graphic representation of effect of glucan on loss of IκBα from rat myocardial cytoplasm following I/R. Rats were pretreated with glucan (40 mg/Kg) for one hr. before being subjected to 15 min. of ischemia and 30 min. of reperfusion. Cytoplasmic proteins were isolated and levels of IκBα protein determined by Western blot analysis. Results were expressed as means±SEM for 5 hearts at each time point. P<0.05 as compared to normal (N).
as §1
(§2) To investigate NF-κB activation in vivo, rat hearts were subjected to various periods of ischemia or ischemia and reperfusion (I/R). For example, levels of IκBα and phosphorylated IκBα proteins in cell cytoplasm following ischemia were evaluated by Western blot with anti-IκBα or antibody specific for the phosphorylated […] (FIG. 9a). NF-κB binding activity in the nucleus following onset of ischemia was analyzed by electrophoretic mobility shift assay (EMSA) (FIG. 10a). […]

NF-κB [3] = assay: EMSA of nuclear NF-κB binding activity in rat myocardium after I/R; format: in vivo, Sprague-Dawley rats; conditions: 40 mg/Kg one hr before ischemia (I45 or I15R30)
Protocol: Rats were pretreated with glucan (40 mg/Kg) for one hr. before being subjected to 45 min. of ischemia (I45), as well as 15 min. ischemia followed by 30 min. reperfusion (I15R30). Nuclear proteins were isolated and analyzed by EMSA. Results are expressed as means±SEM for 5 hearts at each time point. P<0.05 as compared to normal (N).
as §1, §2
NF-κB nuclear binding activity in rat myocardium after in vivo I/R was also determined. […]

TNFα mRNA = assay: RT-PCR of TNFα mRNA in rat myocardium after I/R; format: in vivo, Sprague-Dawley rats; conditions: 40 mg/Kg 1 hr before 15 min ischemia and 1 hr reperfusion
Protocol: FIG. 17 depicts RT-PCR analysis of total RNA obtained from rat myocardium pretreated with glucan (40 mg/Kg) for 1 hr. prior to 15 min. ischemia and 1 hr. reperfusion. TNFα and GAPDH are labeled at right to indicate the position of the corresponding RNA. M is a 100 bp DNA ladder. As indicated, pretreatment with glucan (I15′R1 hr+Glucan) decreases myocardial TNFα mRNA expression after I/R.
as §1
The inventors also investigated whether (1→3)-β-D-glucans regulate TNFα gene expression. […] (1→3)-β-D-glucan down-regulates LPS-induced TNFα mRNA expression in vivo.

NF-κB [4] = assay: EMSA of NF-κB nuclear binding activity in liver and lung after cecal ligation and puncture (CLP); format: in vivo, ICR/HSD mice; conditions: for decrease of liver NF-κB binding activity / decrease of lung NF-κB binding activity: tissue 3 hours after CLP
Protocol: (§3) Nuclear extracts were prepared by homogenizing tissue in hypotonic buffer containing protease inhibitors and incubating the homogenates on ice for approximately 30 minutes with gentle agitation. After cells were lysed, nuclei were collected by centrifugation (14,000 revolutions/min for 5 minutes). Nuclear proteins were extracted by incubating the nuclear fraction on ice for 30 minutes in hypertonic salt buffer containing protease inhibitors. Nuclear extract supernatant was harvested after centrifugation, then stored at −80° C. Protein was quantified by the BCA microprotein assay (Pierce, Rockford, Ill.).
(§4) The electrophoretic mobility shift assay (EMSA) was performed using double-stranded consensus binding site oligonucleotides for NF-κB and NF-IL6 (C/EBP, CCAAT enhancer binding protein), obtained from Santa Cruz Biotechnology (Santa Cruz, Calif.). Oligonucleotides were end-labeled with [γ-^32P]-labeled adenosine triphosphate (Amersham, Arlington Heights, Ill.) with T4 polynucleotide kinase (Promega, Madison, Wis.), using methods known to those of skill in the art. Binding assays were performed in 10 μl of binding reaction mixture containing 10 μg of nuclear proteins and [γ-^32P]-labeled NF-κB or NF-IL6 oligonucleotides. The binding reaction mixture was incubated at room temperature for 20 minutes, then electrophoresed on 4% non-denaturing polyacrylamide gel electrophoresis (PAGE) gels. Specificity of binding was confirmed by addition of a 10-fold excess of cold oligonucleotide to separate reaction mixtures. A 10-fold excess of cold oligonucleotide containing the AP-1 binding site was added to separate reaction mixtures as an additional control. After PAGE, gels were dried and exposed to Kodak X-omat® film at −70° C. Autoradiograms were quantified by scanning densitometry with a Sun IPC workstation running Bioimage® software (Millipore, Bedford, Mass.).
(§5) In studies of (1→3)-β-D-glucan effects on tissue damage due to sepsis, blood (˜0.3 ml) was obtained by open heart puncture from groups of 3 ICR/HSD mice subjected to cecal ligation and puncture (CLP), performed according to the method of Baker et al., Suryery (1983) 94: 331-335, as described by Ayala et al., Circ. Shock (1992) 36: 191-199. Mice subjected to laparotomy only (LO) served as surgical and anesthesia controls. Negative controls were not subjected to either procedure. Blood samples were collected from each group at 1, 2, 4, 8, and 24 hours after surgery. Samples were inoculated into prereduced anaerobically sterilized chopped meat carbohydrate broth (Carr-Scarborough, Stone Mountain, Ga.) under a constant stream of anaerobic carbon dioxide in a VPI Inoculator (Bellco Glass, Vineland, N.J.). After mixing, 1 ml of inoculated broth was aseptically removed from each 6-ml rubber-stoppered anaerobic tube into a sterile loose-capped aerobic culture tube. Both aerobic and anaerobic culture tubes were incubated at 37° C. for 72 hours.
(§6) In pretreatment protocols, 45 mice were randomly divided into 3 groups of 15 mice per group. Group 1 received isovolumetric saline solution intraperitoneally 1 hour before CLP. Group 2 received glucan phosphate (1 mg/mouse=50 mg/kg, intraperitoneally) 1 hour prior to CLP. Group 3 received scleroglucan (1 mg/mouse=50 mg/kg, intraperitoneally) 1 hour prior to CLP. To assess tissue transcription factor activation and cytokine messenger RNA (mRNA) levels, liver and lung tissue were harvested from 5 mice per group at 3 hours after surgery. […] Laparoscopy-only (LO) controls and negative controls received the same saline, glucan phosphate, and scleroglucan treatment as CLP mice.
(§7) In post-treatment protocols, 30 mice were subjected to CLP. These 30 mice were then randomly divided into 2 groups of 15 mice per group. Group 1 received isovolumetric saline solution intravenously 15 minutes post surgery. Group 2 received glucan phosphate (1 mg/mouse=50 mg/kg, intravenously) 15 minutes postsurgery. […]

TNF-α mRNA = assay: RT-PCR of TNF-α mRNA levels in liver and lung after CLP; format: in vivo, ICR/HSD mice
Protocol: (§8) Cytokine reverse transcriptase-polymerase chain reaction (RT-PCR) assays were performed using standard techniques known to those of skill in the art. Upstream and downstream primers for murine TNF-α and IL-6 were used to detect presence of those cytokines. Reduced glyceraldehyde phosphate dehydrogenase (GAPDH) was used as the gene transcript control.
as §5
(§9) In pretreatment protocols, 45 mice were randomly divided into 3 groups of 15 mice per group. Group 1 received isovolumetric saline solution intraperitoneally 1 hour before CLP. Group 2 received glucan phosphate (1 mg/mouse=50 mg/kg, intraperitoneally) 1 hour prior to CLP. Group 3 received scleroglucan (1 mg/mouse=50 mg/kg, intraperitoneally) 1 hour prior to CLP. […]
(§10) Survival trends were compared with the Cox proportional hazard and log-rank procedures. […] Differences in bacteremia between LO and CLP groups were assessed with exact probability level determinations. […]

[5] = test system: ICR/HSD mice subjected to CLP (polymicrobial sepsis); assay: survival of mice with polymicrobial sepsis induced by CLP; format: in vivo; conditions: for long-term survival rate: CLP control 20%
Protocol: as §5, §6
In post-treatment protocols, 30 mice were subjected to CLP. These 30 mice were then randomly divided into 2 groups of 15 mice per group. […]
as §10

IL-6 mRNA = assay: RT-PCR of IL-6 mRNA levels in liver and lung after CLP; format: in vivo, ICR/HSD mice
Protocol: as §8, §5, §9, §10

NF-IL6 = assay: EMSA of NF-IL6 nuclear binding activity in liver and lung after CLP; format: in vivo, ICR/HSD mice; conditions: for decrease of liver NF-IL6 binding activity / decrease of lung NF-IL6 binding activity: tissue 3 hours after CLP
Protocol: as §3, §4, §5, §6, §7

[6] = target: macrophage (1→3)-β-D-Glucan receptor; conditions: cited from earlier work
[7] = posttreatment 50 mg/kg intravenously 15 minutes after CLP
[8] = pretreatment 50 mg/kg 1 hour before CLP
[9] = posttreatment 50 mg/kg intravenously 15 minutes post surgery
[10] = pretreatment 50 mg/kg, 3 hours after CLP

(1→3)-β-D-glucan
apoptotic cell nuclei (TUNEL positive) [1]: 3.33±0.71% | infarct size/area at risk ([2]; 40 mg/kg one hour before 45 min LAD occlusion, untreated 48.82±3.03%): 25.86±2.33% | effect on cytoplasmic IκBα after I/R (IκBα): prevent loss | effect on I/R induced myocardial NF-κB binding activity (NF-κB [3]): markedly reduced, but did not completely inhibit | effect on I/R increase in TNFα mRNA levels (TNFα mRNA): significantly inhibited

glucan phosphate
reduction of infarct size/area at risk compared to control IR group ([2]; 40 mg/kg intravenously 5 min after LAD occlusion): 53% | infarct size/area at risk ([2]; 40 mg/kg intravenously 5 min after LAD occlusion, control IR 51.03±3.69%): 24.39±2.00% | decrease of liver NF-κB binding activity (NF-κB [4]; [7]): 42% | decrease of lung NF-κB binding activity (NF-κB [4]; [7]): 54% | decrease of liver NF-κB binding activity (NF-κB [4]; [8]): 58% | decrease of lung NF-κB binding activity (NF-κB [4]; [8]): 81% | suppression of hepatic TNF-α mRNA levels relative to CLP controls (TNF-α mRNA; [9]): 31% | suppression of lung TNF-α mRNA levels relative to CLP controls (TNF-α mRNA; [9]): 28% | suppression of hepatic TNF-α mRNA levels relative to CLP controls (TNF-α mRNA; [10]): 44% | long-term survival rate ([5]; single posttreatment injection 50 mg/kg intravenously 15 minutes after CLP): 65% | long-term survival rate ([5]; single prophylactic injection 50 mg/kg intraperitoneally 1 hour before CLP): 65% | effect on hepatic IL-6 mRNA levels (IL-6 mRNA; [9]): not altered | suppression of lung IL-6 mRNA levels relative to CLP controls (IL-6 mRNA; [9]): 30% | suppression of hepatic IL-6 mRNA levels relative to CLP controls (IL-6 mRNA; [10]): 49% | decrease of liver NF-IL6 binding activity (NF-IL6; [7]): 95% | decrease of lung NF-IL6 binding activity (NF-IL6; [7]): 63% | decrease of liver NF-IL6 binding activity (NF-IL6; [8]): 77% | decrease of lung NF-IL6 binding activity (NF-IL6; [8]): 68% | pKd ([6]; low affinity, read-out: affinity for the macrophage (1→3)-β-D-glucan receptor): 4.62

scleroglucan
decrease of liver NF-κB binding activity (NF-κB [4]; [8]): 54% | effect on lung NF-κB nuclear binding activity (NF-κB [4]; [10]): inhibited | effect on long-term survival ([5]; 50 mg/kg intraperitoneally 1 hour before CLP): increased long-term survival | decrease of liver NF-IL6 binding activity (NF-IL6; [8]): 38% | effect on lung NF-IL6 nuclear binding activity (NF-IL6; [10]): inhibited | pKd ([6]; high affinity, read-out: affinity for the (1→3)-β-D-glucan receptor): 7.96
